Legend:
BRD4 (BDI_K57-E168) = BRD4 (BDI_K57-E168) (Homo sapiens (Human), UniProt O60885); experiment: TR-FRET bromodomain binding assay, BRD4 first bromodomain; details: His-tagged BD1, Alexa647-labeled probe 100 nM
Method: (§1) A time-resolved fluorescence resonance energy transfer (TR-FRET) assay was used to determine the affinities of compounds of the Examples listed in Table 1 for each bromodomain of BRD4. His-tagged first (BD1: amino acids K57-E168) and second (BD2: amino acids E352-E168) bromodomains of BRD4 were expressed and purified. An Alexa647-labeled BET-inhibitor was used as the fluorescent probe in the assay.
(§2) Compound dilution series were prepared in DMSO via a 3-fold serial dilution from 2.5 mM to 42 nM. Compounds were then diluted 6:100 in assay buffer (20 mM Sodium Phosphate, pH 6.0, 50 mM NaCl, 1 mM Ethylenediaminetetraacetic acid disodium salt dihydrate, 0.01% Triton X-100, 1 mM DL-Dithiothreitol) to yield 3× working solutions. Six microliters (μL) of the working solution was then transferred to white, low-volume assay plates (Costar #3673). A 1.5× assay mixture containing His-tagged bromodomain, Europium-conjugated anti-His antibody (Invitrogen PV5596) and the Alexa-647-conjugated probe molecule was also prepared. Twelve μL of this solution were added to the assay plate to reach a final volume of 18 μL. The final concentration of 1× assay buffer contains 2% DMSO, 50 μM-0.85 nM compound, 8 nM His-tagged bromodomain, 1 nM Europium-conjugated anti-His-tag antibody and 100 nM or 30 nM probe (for BDI or BDII, respectively). After a one-hour incubation at room temperature, TR-FRET ratios were determined using an Envision multilabel plate reader (Ex 340, Em […]).
(§3) TR-FRET data were normalized to the means of 24 no-compound controls (“high”) and 8 controls containing 1 μM un-labeled probe (“low”). Percent inhibition was plotted as a function of compound concentration and the data were fit with the 4 parameter logistic equation to obtain IC50s. Inhibition constants (Ki) were calculated from the IC50s, probe Kd and probe concentration. Typical Z′ values were between 0.65 and 0.75. The minimum significant ratio was determined to evaluate assay reproducibility (Eastwood et al., (2006) J Biomol Screen, 11: 253-261). The MSR was determined to be 2.03 for BDI and 1.93 for BDII, and a moving MSR (last six run MSR overtime) for both BDI and BDII was typically <3.

BRD4 (BDII_E352-M457) = BRD4 (BDII_E352-M457) (Homo sapiens (Human), UniProt O60885); experiment: TR-FRET bromodomain binding assay, BRD4 second bromodomain; details: His-tagged BD2, Alexa647-labeled probe 30 nM
Method: as §1, §2, §3

`CC(=O)Nc1ccc(CNc2cccc(Oc3ccc(S(C)(=O)=O)cc3-c3cn(C)c(=O)c4[nH]ccc34)c2)cc1` [Example 78, N-{4-[({3-[2-(6-methyl-7-oxo-6,7-dihydro-1H-pyrrolo[2,3-c]pyridin-4-yl)-4-(methylsulfonyl)phenoxy]phenyl}amino)methyl]phenyl}acetamide] gave a Ki (BRD4 (BDI_K57-E168)) of 0.9 nM and a Ki (BRD4 (BDII_E352-M457)) of 0.6 nM.

In the case of `COc1cccc(S(=O)(=O)Nc2cccc(Oc3ccc(S(C)(=O)=O)cc3-c3cn(C)c(=O)c4[nH]ccc34)c2)c1` [Example 42, 3-methoxy-N-{3-[2-(6-methyl-7-oxo-6,7-dihydro-1H-pyrrolo[2,3-c]pyridin-4-yl)-4-(methylsulfonyl)phenoxy]phenyl}benzenesulfonamide], the Ki (BRD4 (BDI_K57-E168)) is reported as 9.1 nM and the Ki (BRD4 (BDII_E352-M457)) is reported as 3.5 nM.

For `CCS(=O)(=O)Nc1cc(-c2cn(C)c(=O)c3[nH]ccc23)c(Oc2ccc(F)cc2F)cc1C(=O)N(C)C` [Example 10, 5-(2,4-difluorophenoxy)-2-[(ethylsulfonyl)amino]-N,N-dimethyl-4-(6-methyl-7-oxo-6,7-dihydro-1H-pyrrolo[2,3-c]pyridin-4-yl)benzamide], the Ki (BRD4 (BDI_K57-E168)) was 72 nM and the Ki (BRD4 (BDII_E352-M457)) was 8.3 nM.

`Cn1cc(-c2cc(S(C)(=O)=O)ccc2Oc2cccc(NCC3CCCO3)c2)c2cc[nH]c2c1=O` (centres unmarked) [Example 65, 6-methyl-4-[5-(methylsulfonyl)-2-{3-[(tetrahydrofuran-2-ylmethyl)amino]phenoxy}phenyl]-1,6-dihydro-7H-pyrrolo[2,3-c]pyridin-7-one] showed a Ki (BRD4 (BDI_K57-E168)) of 6.9 nM and a Ki (BRD4 (BDII_E352-M457)) of 2.1 nM.

`CCS(=O)(=O)c1ccc(Oc2ccc(Cl)cc2CCCN2CCOCC2)c(-c2cn(C)c(=O)c3[nH]ccc23)c1` [Example 83, 4-[2-{4-chloro-2-[3-(morpholin-4-yl)propyl]phenoxy}-5-(ethylsulfonyl)phenyl]-6-methyl-1,6-dihydro-7H-pyrrolo[2,3-c]pyridin-7-one] gave a Ki (BRD4 (BDI_K57-E168)) of 5.3 nM and a Ki (BRD4 (BDII_E352-M457)) of 3.5 nM.

Work on `Cn1cc(-c2cc(S(C)(=O)=O)ccc2Oc2cccc(NCc3cc(F)cc(F)c3)c2)c2cc[nH]c2c1=O` [Example 73, 4-[2-{3-[(3,5-difluorobenzyl)amino]phenoxy}-5-(methylsulfonyl)phenyl]-6-methyl-1,6-dihydro-7H-pyrrolo[2,3-c]pyridin-7-one] yielded a Ki (BRD4 (BDI_K57-E168)) of 5.6 nM and a Ki (BRD4 (BDII_E352-M457)) of 3.5 nM.

`CC(=O)Nc1ccc(CN2CCC(Nc3ccc(S(C)(=O)=O)cc3-c3cn(C)c(=O)c4[nH]ccc34)CC2)cc1` [Example 87, N-{4-[(4-{[2-(6-methyl-7-oxo-6,7-dihydro-1H-pyrrolo[2,3-c]pyridin-4-yl)-4-(methylsulfonyl)phenyl]amino}piperidin-1-yl)methyl]phenyl}acetamide] was tested, and the Ki (BRD4 (BDI_K57-E168)) was 21 nM and the Ki (BRD4 (BDII_E352-M457)) was 34 nM.

`COCCNc1cccc(Oc2ccc(S(C)(=O)=O)cc2-c2cn(C)c(=O)c3[nH]ccc23)c1` [Example 64, 4-[2-{3-[(2-methoxyethyl)amino]phenoxy}-5-(methylsulfonyl)phenyl]-6-methyl-1,6-dihydro-7H-pyrrolo[2,3-c]pyridin-7-one] gave a Ki (BRD4 (BDI_K57-E168)) of 5.2 nM and a Ki (BRD4 (BDII_E352-M457)) of 3.4 nM.

`Cn1cc(-c2cc(S(C)(=O)=O)ccc2Oc2cccc(NS(=O)(=O)c3ccc(F)cc3F)c2)c2cc[nH]c2c1=O` [Example 47, 2,4-difluoro-N-{3-[2-(6-methyl-7-oxo-6,7-dihydro-1H-pyrrolo[2,3-c]pyridin-4-yl)-4-(methylsulfonyl)phenoxy]phenyl}benzenesulfonamide] gave a Ki (BRD4 (BDI_K57-E168)) of 5.9 nM and a Ki (BRD4 (BDII_E352-M457)) of 2.7 nM.

Work on `CCS(=O)(=O)c1ccc(Oc2ccc(Cl)cc2C#CCN2CCOCC2)c(-c2cn(C)c(=O)c3[nH]ccc23)c1` [Example 82, 4-[2-{4-chloro-2-[3-(morpholin-4-yl)prop-1-yn-1-yl]phenoxy}-5-(ethylsulfonyl)phenyl]-6-methyl-1,6-dihydro-7H-pyrrolo[2,3-c]pyridin-7-one] yielded a Ki (BRD4 (BDI_K57-E168)) of 39 nM and a Ki (BRD4 (BDII_E352-M457)) of 8.5 nM.

Work on `CCS(=O)(=O)Nc1ccc(Oc2ccc(F)cc2F)c(-c2cn(C)c(=O)c3[nH]c(C#CCOC)cc23)c1` [Example 163, N-{4-(2,4-difluorophenoxy)-3-[2-(3-methoxyprop-1-yn-1-yl)-6-methyl-7-oxo-6,7-dihydro-1H-pyrrolo[2,3-c]pyridin-4-yl]phenyl}ethanesulfonamide] yielded a Ki (BRD4 (BDI_K57-E168)) of 1.64 nM and a Ki (BRD4 (BDII_E352-M457)) of 0.605 nM.

In the case of `Cn1cc(-c2cc(S(C)(=O)=O)ccc2Oc2cccc(NCCC3CCCC3)c2)c2cc[nH]c2c1=O` [Example 81, 4-[2-{3-[(2-cyclopentylethyl)amino]phenoxy}-5-(methylsulfonyl)phenyl]-6-methyl-1,6-dihydro-7H-pyrrolo[2,3-c]pyridin-7-one], the Ki (BRD4 (BDI_K57-E168)) is reported as 35 nM and the Ki (BRD4 (BDII_E352-M457)) is reported as 10 nM.

With `Cn1cc(-c2cc(S(C)(=O)=O)ccc2Oc2cccc(NS(=O)(=O)Cc3ccccc3)c2)c2cc[nH]c2c1=O` [Example 38, N-{3-[2-(6-methyl-7-oxo-6,7-dihydro-1H-pyrrolo[2,3-c]pyridin-4-yl)-4-(methylsulfonyl)phenoxy]phenyl}-1-phenylmethanesulfonamide] the Ki (BRD4 (BDI_K57-E168)) was 5.1 nM and the Ki (BRD4 (BDII_E352-M457)) was 1.9 nM.

Compound `COc1ccc(CNc2cccc(Oc3ccc(S(C)(=O)=O)cc3-c3cn(C)c(=O)c4[nH]ccc34)c2)cc1` [Example 79, 4-[2-{3-[(4-methoxybenzyl)amino]phenoxy}-5-(methylsulfonyl)phenyl]-6-methyl-1,6-dihydro-7H-pyrrolo[2,3-c]pyridin-7-one] has a Ki (BRD4 (BDI_K57-E168)) of 7.8 nM and a Ki (BRD4 (BDII_E352-M457)) of 2.7 nM.

With `Cn1cc(-c2cc(S(C)(=O)=O)ccc2Oc2cccc(NCc3ccccc3F)c2)c2cc[nH]c2c1=O` [Example 67, 4-[2-{3-[(2-fluorobenzyl)amino]phenoxy}-5-(methylsulfonyl)phenyl]-6-methyl-1,6-dihydro-7H-pyrrolo[2,3-c]pyridin-7-one] the Ki (BRD4 (BDI_K57-E168)) was 4.3 nM and the Ki (BRD4 (BDII_E352-M457)) was 2.8 nM.

Compound `Cn1cc(-c2cc(S(C)(=O)=O)ccc2NC2CCN(S(=O)(=O)c3cccs3)CC2)c2cc[nH]c2c1=O` [Example 106, 6-methyl-4-[5-(methylsulfonyl)-2-{[1-(thiophen-2-ylsulfonyl)piperidin-4-yl]amino}phenyl]-1,6-dihydro-7H-pyrrolo[2,3-c]pyridin-7-one] has a Ki (BRD4 (BDI_K57-E168)) of 7.9 nM and a Ki (BRD4 (BDII_E352-M457)) of 6.5 nM.

In the case of `CCS(=O)(=O)c1ccc(OCC2CC2(F)F)c(-c2cn(C)c(=O)c3[nH]c(C#CCN(C)C)cc23)c1` (centres unmarked) [Example 63, 4-{2-[(2,2-difluorocyclopropyl)methoxy]-5-(ethylsulfonyl)phenyl}-2-[3-(dimethylamino)prop-1-yn-1-yl]-6-methyl-1,6-dihydro-7H-pyrrolo[2,3-c]pyridin-7-one], the Ki (BRD4 (BDI_K57-E168)) is reported as 1.3 nM and the Ki (BRD4 (BDII_E352-M457)) is reported as 3.3 nM.

Compound `Cn1cc(-c2cc(S(C)(=O)=O)ccc2Oc2cccc(NCc3ccc4c(c3)OCCO4)c2)c2cc[nH]c2c1=O` [Example 76, 4-[2-{3-[(2,3-dihydro-1,4-benzodioxin-6-ylmethyl)amino]phenoxy}-5-(methylsulfonyl)phenyl]-6-methyl-1,6-dihydro-7H-pyrrolo[2,3-c]pyridin-7-one] has a Ki (BRD4 (BDI_K57-E168)) of 3.3 nM and a Ki (BRD4 (BDII_E352-M457)) of 1.1 nM.

Compound `CCS(=O)(=O)c1ccc(Oc2c(C)cccc2Cl)c(-c2cn(C)c(=O)c3[nH]c(C(=O)NC(C)C(=O)NC)cc23)c1` (centres unmarked) [Example 121, 4-[2-(2-chloro-6-methylphenoxy)-5-(ethylsulfonyl)phenyl]-6-methyl-N-[1-(methylamino)-1-oxopropan-2-yl]-7-oxo-6,7-dihydro-1H-pyrrolo[2,3-c]pyridine-2-carboxamide] has a Ki (BRD4 (BDI_K57-E168)) of 62.1 nM and a Ki (BRD4 (BDII_E352-M457)) of 7.2 nM.

Compound `CCNC(=O)c1cc2c(-c3cc(S(=O)(=O)CC)ccc3Oc3c(C)cccc3CN3CCCC3=O)cn(C)c(=O)c2[nH]1` [Example 151, N-ethyl-4-[5-(ethylsulfonyl)-2-{2-methyl-6-[(2-oxopyrrolidin-1-yl)methyl]phenoxy}phenyl]-6-methyl-7-oxo-6,7-dihydro-1H-pyrrolo[2,3-c]pyridine-2-carboxamide] has a Ki (BRD4 (BDI_K57-E168)) of 813 nM and a Ki (BRD4 (BDII_E352-M457)) of 9.95 nM.

For `Cn1cc(-c2cc(S(C)(=O)=O)ccc2Oc2cccc(C(=O)NC3CCCCC3)c2)c2cc[nH]c2c1=O` [Example 25, N-cyclohexyl-3-[2-(6-methyl-7-oxo-6,7-dihydro-1H-pyrrolo[2,3-c]pyridin-4-yl)-4-(methylsulfonyl)phenoxy]benzamide], the Ki (BRD4 (BDI_K57-E168)) was 19 nM and the Ki (BRD4 (BDII_E352-M457)) was 6.1 nM.

`CN1CCC(N2CCN(Cc3cc4c(-c5cc(S(C)(=O)=O)ccc5Oc5ccc(F)cc5F)cn(C)c(=O)c4[nH]3)CC2)CC1` [Example 125, 4-[2-(2,4-difluorophenoxy)-5-(methylsulfonyl)phenyl]-6-methyl-2-{[4-(1-methylpiperidin-4-yl)piperazin-1-yl]methyl}-1,6-dihydro-7H-pyrrolo[2,3-c]pyridin-7-one] gave a Ki (BRD4 (BDI_K57-E168)) of 8.47 nM and a Ki (BRD4 (BDII_E352-M457)) of 189 nM.

Source: patent publication US9957263B2, “Bromodomain inhibitors” (AbbVie Inc., priority 2013, dated 2018)
